According to a melting point compilation (Tetko et al.; mined from patent text by program, amines drawn as free bases though some values may be those of a salt):

Structure (SMILES) | melting point [°C]
O=C(OCc1ccccc1)N1CCN2C(=O)OCC2C1 (racemic) | 85.5 to 86.5
O=C(O)CCc1nc2c(F)c(F)cc(F)c2s1 | 123 to 125
COc1ccc(N=C(NC(=S)NCCO)c2ccccc2)cc1 | 141 to 142
CC(C)(C)OC(=O)N1CCc2c(n(CCOc3ccccc3)c3cc(Cl)cc(Cl)c23)CC1 | 132 to 133
O=[N+]([O-])c1cnn2c1-c1ccccc1NC2C1CCCCC1 (centres undefined) | 150 to 152
Cn1cncc1C(O)(c1ccc(F)cc1)c1ccc2c(c1)C(c1cccc(Cl)c1)Nc1nnnn1-2 (centres undefined) | 121
CCC1(CC)COC(=O)N1c1nc(-c2ccc(C#N)cc2)c(F)s1 | 151 to 153
Cc1ccc(-c2ccc3c(c2)C=C(C(=O)Nc2ccc(CNCc4ccccc4)cc2)CCO3)cc1 | 147 to 148
COc1ccc(-c2nc(NC(C)=O)n3nc(-c4ccco4)nc3n2)cc1 | 243 to 246
FC(F)(c1ccccc1)c1nc(-c2ccncc2)cs1 | 54.5 to 55.5
CC(=O)C=Cc1ccc(NS(C)(=O)=O)c(Sc2ccc(F)cc2F)c1 | 119 to 120
CCOC(=O)c1cnc2c(c(C)nn2C)c1N(C)S(=O)(=O)c1ccc(Oc2ccncc2)cc1 | 117 to 119
CCCCCS(=O)(=O)NC(=O)CCc1cc(OCCOC)nn1Cc1ccc(Cl)cc1Cl | 108 to 112
CCOCc1nc2c(N)nc(C)c(C)c2n1CCCC(N)=O | 199 to 200
CO[C@@H]1CC[C@H](C(=O)O)Cc2onc(-c3ccc(Cl)cc3)c21 (relative stereo) | 168 to 170
NC(=O)[C@@H]1CCCN1C(=O)/C=C/S(=O)(=O)c1ccccc1 | 157 to 158
CCNC(=O)NC[C@H]1CN(c2ccc3c(c2)CCCc2cnoc2-3)C(=O)O1 | 193 to 196
COc1ccc(C2SCCCS2)cc1 | 117 to 119
COc1ccc2c(c1)CC(=O)c1cc(C(C)C(N)=O)ccc1S2 (centres undefined) | 186 to 188
N#Cc1ccc(CNc2cc(C(N)=O)c([N+](=O)[O-])cc2[N+](=O)[O-])cc1 | 201 to 203
CCOc1ccc2c(c1)C(C)(c1ccccc1Cl)C(=O)N2S(=O)(=O)c1ccc(N)cc1OC (centres undefined) | 211
Cc1ccc(-n2nc(C(F)F)cc2-c2ccc(S(C)(=O)=O)c(F)c2)cc1Cl | 146 to 147
COC(=O)c1ccc2oc(-c3cc(C)ccc3OC)cc(=O)c2c1 | 154 to 156

Structure (SMILES) | melting point [°C]
CC(C)(C)NC(=O)Nc1nc2nc(N)ncc2cc1-c1cccnc1 | > 300
NS(=O)(=O)Cc1nc(-c2ccc(Cl)c(Cl)c2)cs1 | 187 to 190
CNS(=O)(=O)c1cccc(NC(=O)c2cnn3c(C(F)F)cc(-c4ccc(C(F)(F)F)cc4)nc23)c1 | 255
CCC1(CCCCN2CC=C(c3ccc(Cl)cc3)CC2)C(=O)Nc2ccccc21 (centres undefined) | 142 to 145
CCOC(=O)[C@@H]1C[C@@H](O)CN1S(C)(=O)=O | 111 to 113
CN1CCN(Cc2ccc(NC(=O)n3ccc4cc(Oc5cc(CC(N)=O)ncn5)ccc43)cc2C(F)(F)F)CC1 | 221 to 223
Cc1n[nH]c(C)c1CC1CC2c3cccc4[nH]cc(c34)CC2N(C)C1 (centres undefined) | > 300
Brc1coc(-c2cn([C@H]3CN4CCC3CC4)nn2)c1 | 129
CCOc1cccc(-c2cn(C)cc(-c3ccccc3)c2=O)c1 | 133 to 135
NCCc1ccc(-c2csc(N=C(N)N)n2)o1 | 156 to 158
Cc1ccccc1-c1ccc(C(=O)N2Cc3ccc(C(=O)CCc4cccnc4)n3Cc3ccccc32)cc1 | 135 to 136
O=C(CCCCCc1ccc(Cl)cc1)N1CCN(c2cnccn2)CC1 | 88 to 89
O=C(N[C@H]1CC[C@H](CCN2CCC(c3ccc(F)c4occc34)CC2)CC1)C1CCOCC1 | 208
O=C1C=CC(O)(c2ccc3ccccc3c2)C=C1 | 137
CCC(=O)NC[C@H]1CN(c2ccc3c(c2)C[C@@H](C)N3C(=O)OCc2ccccc2)C(=O)O1 | 181 to 183
c1ccc(CCCC2CCN(Cc3nc4ccccc4[nH]3)CC2)cc1 | 140 to 141
Cc1cc(Cc2ccc(O)cc2)n(C)c1C(=O)c1ccc(Cl)cc1 | 183 to 185
O=C(O)Cn1c(=O)c(=O)[nH]c2cc(Cl)c(Cl)cc21 | 317 to 319
CCOC(=O)c1nc(NC)sc1C(=O)C(C)Br (centres undefined) | 104 to 106
CCC(=O)c1ccc(S(=O)(=O)c2ccccc2)cc1 | 83 to 84
CCCOC(=O)c1cc(=O)c2c(OCc3ccc(OCc4ccc5ccccc5n4)cc3)c(Cl)ccc2o1 | 173 to 174
CC(=Cc1ccc(OCc2cccc(Cl)c2)cc1)[N+](=O)[O-] | 117 to 118
CN1c2ccccc2-c2nc3ccccc3c3cccc1c23 | 212 to 214

Structure (SMILES) | melting point [°C]
CC(C)c1ccccc1N1CCS/C1=N/N=C\c1ccc(-c2ncn(-c3ccc(OC(F)(F)F)cc3)n2)cc1 | 193 to 196
COc1cc(S(C)(=O)=O)c(C)cc1OCC(=O)NCC(O)COc1ccccc1C (centres undefined) | 75 to 79
CCN(CC)C(=O)COc1ccn2nc(-c3ccccc3)c(-c3ccc(=O)n(C(C)C)n3)c2c1 | 125 to 126
O=C(Cc1cccc(O)c1)c1cccc(O)c1 | 151 to 154
Cc1cn(S(C)(=O)=O)c2c1C(=O)CC(c1cccs1)C2 (centres undefined) | 135 to 136
Cc1cc2c(c(C)c1Br)C(c1ccc(C(C)C)cc1)CS2 (centres undefined) | 98 to 100
Cc1c(N2CCc3ccccc3C2)c(F)cn2c(=O)c(C(=O)O)cc(C3CC3)c12 | 214 to 215
Cc1cc(Nc2ccnc(Nc3ccc(S(=O)(=O)N(CCNC(=O)OC(C)(C)C)C4CCN(C(=O)OC(C)(C)C)CC4)cc3)n2)ccc1F | 242 to 244
COCCOC(=O)C1=C(C)NN=C(C(=O)OC(C)C)C1c1cccc([N+](=O)[O-])c1 (centres undefined) | 146 to 148
O=C(O)Cc1csc(-c2cc3cccc(NS(=O)(=O)c4cccs4)c3[nH]2)n1 | 228 to 229
C=C(C)c1cccc(C(C)(C)N=C=O)c1 | 60 to 62
N#CC1CC(c2ccccc2Cl)=NC1c1ccc(-c2ccc(OC(F)(F)F)cc2)cc1 (centres undefined) | 132
COc1cccc2c(Nc3cccc(Br)c3)c(C#N)cnc12 | 210 to 212
CC(C)N(C(C)C)S(=O)(=O)N[C@@H](Cc1ccc(NC(=O)c2c(Cl)cncc2Cl)cc1)C(=O)O | 151
COC(=O)C(C)Nc1c([N+](=O)[O-])cnn1-c1c(Cl)cc(C(F)(F)F)cc1Cl (centres undefined) | 123 to 130
CCC(CCC(=C(C#N)C(N)=O)c1cc(O)c(O)c(O)c1)NC(=O)C(C#N)=Cc1cc(O)c(O)c(O)c1 (centres undefined) | > 300
CCOC(c1ccc(Cl)c2nc3n(c12)CCCN3c1ccc(OC)nc1C)C(F)(F)F (centres undefined) | 168 to 170
COc1cccc(-c2cc(-c3ccoc3)on2)c1 | 36 to 37
Cc1cc2n[nH]c(=O)n2nc1-c1ccc(C(N)=S)cc1 | 325 to 329
CCC(=O)c1cnccn1 | 46 to 47
C=CCOc1cc(NC(=O)OCC)c(F)cc1Br | 66 to 68
COCC(OC(N)=O)c1nc2cc(F)c(OC(C)c3c(Cl)ccc(F)c3Cl)cc2s1 (centres undefined) | 200 to 205
C#Cc1ccc([Si](OC)(OC)OC)cc1 | 38 to 39
